Assay: Psilocin conversion in the dose formulation (HPLC-MS/MS)
Assay type: physicochemical
Details: saline formulation, final pH 6.3, aliquots stored at −80° C. until analysis
Method: Compounds: Compound 122 was dissolved in saline (1.3 mg/kg) and adjusted to pH 7.4 for SC administration to the neck scruff at a dosing volume of 5 mL/kg. The final pH was checked prior to dosing, and found to be pH 6.3. This dose was selected as it delivered 0.72 mg/kg psilocin (assuming 100% conversion of the pro-drug). Aliquots of the formulation was additionally collected and stored at −80° C. until analysis by high performance liquid chromatography with tandem mass spectrometry (HPLC-MS/MS) to confirm dosing of compound 122 and minimal conversion to psilocin pre-dose (<2.5%).
[…]. Three aliquots from the dose formulations were diluted to a nominal concentration of 5 μg/mL, and injected in triplicate into the HPLC-MS/MS. The relative percentage of the psilocin peak in the dose formulation compared to the psilocin standard peak at 5 μg/mL, was used to assess for psilocin conversion in the dosing formulations.

With CN(C)CCc1c[nH]c2cccc(OC(=O)CCCC(=O)Oc3cccc4[nH]cc(CCN(C)C)c34)c12 [Compound 122, bis(3-(2-(dimethylamino)ethyl)-1H-indol-4-yl) glutarate] the “conversion to psilocin pre-dose in dose formulation” value was under 2.5%.

Reference: patent US20250066300A1, “3-(2-(DIMETHYLAMINO)ETHYL)-1H-INDOL-4-yl OLIGOMERIC DERIVATIVES” (priority 2023, published 2025)
